Data published in US20250034196A1, “ESTER DERIVATIVES OF N4-HYDROXYCYTIDINE AND USE THEREOF” (priority 2021, published 2025).

Columns and labels:
[1] = system: SARS-CoV-2; details: 800 mg twice a day for 5 days, early infected patients; cited from earlier work
[2] = in vitro; assay type: in vitro ADME; details: microsomes, pH 7.4
Method: (§1) Preparation of Solutions: Stock solution (10 mM) of each of test compounds was prepared in DMSO. The stock solution for each compound was then diluted into 100 μM with acetonitrile.
(§2) Microsome Incubations: Incubation mixtures were prepared in a total volume of 200 μL with final component concentrations as follows: 0.1M PBS (pH 7.4), NADPH (2 mM) and liver microsomes (0.2 mg/mL) as well as test compound (1 μM) or Molnupiravir (1 μM) as a positive control, wherein the NADPH was added after a 5-min preincubation of all other components at 37° C. Pipette-mixed to achieve a homogenous suspension and immediately transferred 20 μL incubate as a 0 min sample to wells in a “Quenching” plate followed by adding 200 μL of acetonitrile with metolazone as IS and pipette-mixing. At 2, 5, 10, and 45 min, pipette-mixed the incubate and serially transfer samples of 20 μL incubate per time point to wells in a separate “Quenching” plate followed by adding 200 μL of acetonitrile with metolazone as IS and pipette-mixing.
(§3) Sample Analysis: The 96-well plate was centrifuged at 6000 g for 10 min. The supernatant was injected onto the LC-MS/MS system for analysis.

[3] = in vitro; assay type: in vitro ADME; details: plasma
Method: as §1
Plasma Incubations: Plasma incubations were conducted in duplicate in 96-well plate at 37° C. Plasma was prewarmed in a total volume of 198 μL for 5 min at 37° C., then added 2 μL of 100 μM test compound into an incubation well containing plasma, pipette-mixed to achieve a homogenous suspension and immediately transferred 20 μL incubate as a 0 min sample to wells in a “Quenching” plate followed by adding 200 μL of acetonitrile with metolazone as internal standard (IS) and pipette-mixing. At 2, 5, 60, and 90 min, pipette-mixed the incubate and serially transfer samples of 20 μL incubate per time point to wells in a separate “Quenching” plate followed by adding 200 μL of acetonitrile with metolazone as IS and pipette-mixing.
as §3

[4] = in vivo; set-up: species or system Beagle Dogs; details: dog, po, 22 mg/kg; for AUC(0-inf): AUCINF of CH2107 (Molnupiravir); for AUC(0-t): AUClast of CH2107 (Molnupiravir); for Cmax: Cmax of CH2107 (Molnupiravir); for MRT inf: MRTINF of CH2107 (Molnupiravir); for half-life: T1/2 of CH2107 (Molnupiravir); for Tmax: Tmax of CH2107 (Molnupiravir)
Method: Example 174: Pharmacokinetic Study of EX-2 (CH2101), Molnupiravir (CH2017) and its Metabolite NHC (CH2018) Following a Single PO Administration of EX-2 (CH2101) or Molnupiravir (CH2017) in Male and Female Beagle Dogs
Both test compounds were prepared in 1% methyl cellulose (400 cps, SIGMA, SLCF9694) solution in purified water.
A total of 6 male+6 female Beagle Dogs, approximately 7-13 kg of bodyweight, were originally purchased from Marshall Biotechnology Co., Ltd. The animals were fasted overnight prior to dosing and food was re-provided after 4 hours post dosing.
The animals were restrained manually, and approximately 1 mL of blood at each time point was collected into pre-cooled EDTA-K2 tubes via cephalic or saphenous veins. Blood samples were centrifuged at 4° C. (4000 rpm. 5 min) to obtain plasma within 30 min after sample collection. All samples were stored at approximately −80° C. until analysis. The backup samples will be discarded after the in vivo experiment has been completed for two months unless requested.

[5] = in vitro; details: African green monkey
[6] = Microsome stability; assay type: in vitro ADME, Monkey; details: Monkey liver microsomes 0.2 mg/mL, NADPH, 1 μM
Method: as §1, §2, §3

[7] = both sexes, beagle, Plasma concentration of CH2107 (Molnupiravir)
[8] = female, beagle, Plasma concentration of CH2107 (Molnupiravir)
[9] = male, beagle, Plasma concentration of CH2107 (Molnupiravir)

With CC(C)C(=O)OC[C@H]1O[C@@H](n2ccc(NO)nc2=O)[C@H](O)[C@@H]1O [Molnupiravir] as the molecule, how does the “Reduction in patients progressing into hospitalizations” value [1] read?
Its value is 50%.

And the half-life at 1 µM ([2]; dog)?
The half-life at 1 µM was 3.9 min.

And the half-life at 1 µM ([2]; human)?
Its half-life at 1 µM is 71.3 min.

And the half-life at 1 µM ([2]; mouse)?
Its half-life at 1 µM is 5.6 min.

And the half-life at 1 µM ([2]; rat)?
The half-life at 1 µM was 13.8 min.

What about the half-life at 1 µM ([3]; dog) of the same molecule?
Its half-life at 1 µM is 39.4 min.

And the half-life at 1 µM ([3]; human)?
Its half-life at 1 µM is 66.2 min.

What about the half-life at 1 µM ([3]; monkey) of the same molecule?
The half-life at 1 µM was 25.8 min.

And the half-life at 1 µM ([3]; mouse)?
The half-life at 1 µM was 25.8 min.

And the half-life at 1 µM ([3]; rat)?
The half-life at 1 µM was 3.3 min.

And the AUC(0-inf) ([4]; both sexes, Beagle)?
The AUC(0-inf) was 932 ng·h/mL.

What about the AUC(0-t) ([4]; both sexes, Beagle) of the same molecule?
The AUC(0-t) was 930 ng·h/mL.

What about the Cmax ([4]; both sexes, Beagle) of the same molecule?
The Cmax was 1320 ng/mL.

And the MRT inf ([4]; both sexes, Beagle)?
Its MRT inf is 38.9 min.

What about the half-life ([4]; both sexes, Beagle) of the same molecule?
The half-life was 25.2 min.

And the concentration at 0.083 hr [4, 7]?
Its concentration at 0.083 hr is 496 ng/mL.

And the concentration at 0.25 hr [4, 7]?
The concentration at 0.25 hr was 1300 ng/mL.

And the concentration at 0.5 hr [4, 7]?
Its concentration at 0.5 hr is 1010 ng/mL.

What about the concentration at 1 hr [4, 7] of the same molecule?
The concentration at 1 hr was 230 ng/mL.

And the concentration at 2 hr [4, 7]?
Its concentration at 2 hr is 28.2 ng/mL.

What about the concentration at 4 hr [4, 7] of the same molecule?
The concentration at 4 hr was 4.75 ng/mL.

What about the concentration at 6 hr [4, 7] of the same molecule?
Its concentration at 6 hr is 5.45 ng/mL.

What about the concentration at 8 hr [4, 7] of the same molecule?
Its concentration at 8 hr is 1.08 ng/mL.

And the Tmax ([4]; both sexes, beagle)?
The Tmax was 18.8 min.

And the “AUCmale/female of CH2107 (Molnupiravir)” value ([4]; both, Beagle)?
Its value is 171%.

And the “AUCmale/female of EX-1/NHC/CH2018” value ([4]; both, Beagle)?
The value was 128%.

What about the “Plasma concentration of EX-1/NHC/CH2018” value ([4]; both, Beagle, 0.083 hr) of the same molecule?
The value was 527 ng/mL.

And the “Plasma concentration of EX-1/NHC/CH2018” value ([4]; both, Beagle, 0.25 hr)?
The value was 5653 ng/mL.

And the “Plasma concentration of EX-1/NHC/CH2018” value ([4]; both, Beagle, 0.5 hr)?
Its value is 8040 ng/mL.

And the “Plasma concentration of EX-1/NHC/CH2018” value ([4]; both, Beagle, 1 hr)?
Its value is 8648 ng/mL.

What about the “Plasma concentration of EX-1/NHC/CH2018” value ([4]; both, Beagle, 2 hr) of the same molecule?
The value was 4038 ng/mL.

And the “Plasma concentration of EX-1/NHC/CH2018” value ([4]; both, Beagle, 4 hr)?
The value was 970 ng/mL.

What about the “Plasma concentration of EX-1/NHC/CH2018” value ([4]; both, Beagle, 6 hr) of the same molecule?
The value was 244 ng/mL.

And the “Plasma concentration of EX-1/NHC/CH2018” value ([4]; both, beagle, 8 hr)?
Its value is 105 ng/mL.

What about the “Plasma concentration of EX-1/NHC/CH2018” value ([4]; both, beagle, 24 hr) of the same molecule?
The value was 18.4 ng/mL.

What about the “AUCINF of CH2107 (Molnupiravir)” value ([4]; female, Beagle) of the same molecule?
Its value is 778 ng·h/mL.

What about the “AUClast of CH2107 (Molnupiravir)” value ([4]; female, Beagle) of the same molecule?
Its value is 778 ng·h/mL.

And the AUC(0-inf) ([4]; female, Beagle)?
Its AUC(0-inf) is 598 ng·h/mL.

What about the AUC(0-t) ([4]; female, Beagle) of the same molecule?
The AUC(0-t) was 596 ng·h/mL.

What about the Cmax ([4]; female, Beagle) of the same molecule?
The Cmax was 1080 ng/mL.

And the “Plasma concentration of CH2107 (Molnupiravir)” value (from here on “Plasma concentration of CH2107”) ([4]; female, beagle, 0.5 hr)?
The value was 693 ng/mL.

And the “Plasma concentration of CH2107” value ([4]; female, beagle, 1 hr)?
The value was 120 ng/mL.

And the “Plasma concentration of CH2107” value ([4]; female, beagle, 4 hr)?
Its value is 8.06 ng/mL.

What about the “Plasma concentration of CH2107” value ([4]; female, beagle, 6 hr) of the same molecule?
The value was 5.45 ng/mL.

And the “Plasma concentration of CH2107” value ([4]; female, beagle, 8 hr)?
Its value is 1.08 ng/mL.

And the concentration at 0.5 hr [4, 8]?
Its concentration at 0.5 hr is 499 ng/mL.

What about the concentration at 1 hr [4, 8] of the same molecule?
Its concentration at 1 hr is 207 ng/mL.

And the concentration at 4 hr [4, 8]?
The concentration at 4 hr was 8.06 ng/mL.

What about the concentration at 6 hr [4, 8] of the same molecule?
The concentration at 6 hr was 5.45 ng/mL.

What about the concentration at 8 hr [4, 8] of the same molecule?
Its concentration at 8 hr is 1.08 ng/mL.

And the Tmax ([4]; female, beagle)?
The Tmax was 30 min.

What about the “AUCINF of CH2107 (Molnupiravir)” value ([4]; male, Beagle) of the same molecule?
Its value is 1246 ng·h/mL.

What about the “AUClast of CH2107 (Molnupiravir)” value ([4]; male, Beagle) of the same molecule?
The value was 1245 ng·h/mL.

And the “Cmax of CH2107 (Molnupiravir)” value ([4]; male, Beagle)?
Its value is 1680 ng/mL.

And the “MRTINF of CH2107 (Molnupiravir)” value ([4]; male, Beagle)?
Its value is 34 min.

What about the “T1/2 of CH2107 (Molnupiravir)” value ([4]; male, Beagle) of the same molecule?
The value was 21.1 min.

And the “Plasma concentration of CH2107” value ([4]; male, Beagle, 0.25 hr)?
The value was 1680 ng/mL.

And the AUC(0-inf) ([4]; male, Beagle)?
The AUC(0-inf) was 1100 ng·h/mL.

What about the AUC(0-t) ([4]; male, Beagle) of the same molecule?
Its AUC(0-t) is 1100 ng·h/mL.

What about the MRT inf ([4]; male, Beagle) of the same molecule?
Its MRT inf is 27.7 min.

And the half-life ([4]; male, Beagle)?
The half-life was 12.7 min.

What about the “Plasma concentration of CH2107” value ([4]; male, beagle, 0.5 hr) of the same molecule?
Its value is 1430 ng/mL.

What about the “Plasma concentration of CH2107” value ([4]; male, beagle, 2 hr) of the same molecule?
Its value is 11.1 ng/mL.

What about the “Plasma concentration of CH2107” value ([4]; male, beagle, 4 hr) of the same molecule?
Its value is 1.44 ng/mL.

What about the Cmax ([4]; male, beagle) of the same molecule?
The Cmax was 1450 ng/mL.

What about the concentration at 0.25 hr [4, 9] of the same molecule?
The concentration at 0.25 hr was 1450 ng/mL.

And the concentration at 0.5 hr [4, 9]?
Its concentration at 0.5 hr is 1420 ng/mL.

What about the concentration at 2 hr [4, 9] of the same molecule?
The concentration at 2 hr was 9.81 ng/mL.

What about the concentration at 4 hr [4, 9] of the same molecule?
The concentration at 4 hr was 1.44 ng/mL.

What about the Tmax ([4]; male, beagle) of the same molecule?
Its Tmax is 15 min.

What about the CC50 at 4 days [5] of the same molecule?
Its CC50 at 4 days is > 100 µM.

And the T1/2 [6]?
The T1/2 was 4.7 min.
